Three molecules from ChEMBL document CHEMBL4043234, “Anticancer efficacy of p-dodecylaminophenol against high-risk and refractory neuroblastoma cells in vitro and in vivo” (Bioorg Med Chem Lett, 2017) can be followed below.

The test system of assay [1] is SK-N-AS. The experiment in a line: Cell cycle arrest in human SK-N-AS cells at 4 uM up to 72 hrs by propidium iodide staining based flow cytometry. In kind it is functional. A general note: A flow cytometer gives signals particle by particle.
Assay [2] deals with SK-N-AS. The experiment in a line: Induction of apoptosis in human SK-N-AS cells assessed as increase in caspase-3 activity at 4 uM after 24 hrs by CPP32 based colorimetric assay relative to control. In kind it is functional.
The subject of assay [3] is IMR-32. The experiment in a line: Growth inhibition of human IMR32 cells at 0.4 uM after 72 hrs by MTT assay relative to control. The settings on record: IMR-32, 72 h, read-out: GI. In kind it is functional. Background: Formazan colour is commonly taken as a measure of viable cells.
In assay [4] the test system is SK-N-AS. Put plainly: Induction of apoptosis in human SK-N-AS cells assessed as increase in caspase-3 activity at 4 uM by CPP32 based colorimetric assay. In kind it is functional, cell-based. Conditions: TDE = time-dependent effect.
The test system of assay [5] is SK-N-AS. Put plainly: Cell cycle arrest in human SK-N-AS cells assessed as increase in sub-G1 phase population at 4 uM after 24 hrs by propidium iodide staining based flow cytometry relative to control. In kind it is functional.
Assay [6] relates to SK-N-AS. The experiment in a line: Growth inhibition of human SK-N-AS cells at 1 uM after 24 hrs by MTT assay relative to control. In kind it is functional. Conditions: read-out: GI.
Assay [7] relates to IMR-32. Put plainly: Growth inhibition of human IMR32 cells at 0.1 uM after 72 hrs by MTT assay relative to control. In kind it is functional. The settings on record: IMR-32, 72 h, read-out: GI.
In assay [8] the test system is IMR-32. Put plainly: Induction of apoptosis in human IMR32 cells assessed as decrease in Bcl-2 mRNA expression level at 4 uM after 8 hrs by real-time PCR method. In kind it is functional, cell-based.
Assay [9] has as its system SK-N-AS. The experiment in a line: Growth inhibition of human SK-N-AS cells at 1 uM after 72 hrs by MTT assay relative to control. The settings on record: read-out: GI. The assay is classed as functional.
In assay [10] the test system is IMR-32. Put plainly: Reduction in N-myc mRNA expression level in human IMR32 cells at 4 uM after 8 hrs by real-time PCR method. The assay is classed as functional, cell-based. For orientation: In qPCR the cycle at which signal appears reflects the starting amount.
Assay [11] has as its system SK-N-AS. The experiment in a line: Induction of apoptosis in human SK-N-AS cells assessed as decrease in Bcl-2 mRNA expression level at 4 uM after 24 hrs by real-time PCR method relative to control. The assay is classed as functional. On the set-up: scale not given: the % may be the effect or the level left.
Assay [12] deals with IMR-32. Put plainly: Growth inhibition of human IMR32 cells at 0.01 uM after 72 hrs by MTT assay relative to control. Conditions: IMR-32, 72 h, read-out: GI. In kind it is functional.
Assay [13] relates to IMR-32. Put plainly: Induction of apoptosis in human IMR32 cells assessed as decrease in Bcl-2 mRNA expression level at 4 uM after 24 hrs by real-time PCR method relative to control. In kind it is functional. On the set-up: scale not given: the % may be the effect or the level left.
Assay [14] relates to IMR-32. The experiment in a line: Growth inhibition of human IMR32 cells at 0.1 uM after 24 hrs by MTT assay relative to control. In kind it is functional. The settings on record: IMR-32, 24 h, read-out: GI.
For assay [15], the system named is IMR-32. Put plainly: Reduction in N-myc mRNA expression level in human IMR32 cells at 4 uM after 24 hrs by real-time PCR method relative to control. The assay is classed as functional. The arrangement: scale not given: the % may be the effect or the level left.
Assay [16] concerns SK-N-AS. The experiment in a line: Growth inhibition of human SK-N-AS cells at 4 uM after 72 hrs by MTT assay relative to control. The assay is classed as functional. Conditions: read-out: GI.
The subject of assay [17] is SK-N-AS. The experiment in a line: Growth inhibition of human SK-N-AS cells at 4 uM after 24 hrs by MTT assay relative to control. The settings on record: read-out: GI. In kind it is functional.

The source made the active and inactive calls. The rule behind the calls is not given here.

Consider `CC1=C(/C=C/C(C)=C/C=C/C(C)=C/C(=O)Nc2ccc(O)cc2)C(C)(C)CCC1` [FENRETINIDE], for which the result in the assay with SK-N-AS [1] was Active. The “fold change (FC)” value is given as 4.7 in the assay with SK-N-AS [2] and 5 in the assay with SK-N-AS [5]. In addition, the inhibition of growth at 0.4 µM in the assay on IMR-32 [3] came to 27%. For the same molecule, the Activity result in the assay on SK-N-AS [4] was “Tde”; with SK-N-AS [11], 62%; in the assay with IMR-32 [13], 69%; with IMR-32 [15], 27%. Further, the results for the inhibition of growth at 1 µM in the assay with SK-N-AS [6] and in the assay with SK-N-AS [9] were 2% and 10%, respectively. Also, the inhibition of growth at 0.1 µM in the assay on IMR-32 [7] was found to be 17%; in the assay on IMR-32 [14], 4%. Moreover, the result with IMR-32 [8] and in the assay with IMR-32 [10] was inactive. Besides, the inhibition of growth at 0.01 µM in the assay with IMR-32 [12] was 15%.
For `CCCCCCCCCC(=O)Nc1ccc(O)cc1`, the inhibition of growth at 4 µM in the assay with SK-N-AS [16] was 13%; in the assay on SK-N-AS [17] it was 5%.
On the same counts, the results for `CCCCCCCCCCCC(=O)Nc1ccc(O)cc1` are 24% and 22%.
